Measured values reported in patent US7803801B2, “Aminopyridine compounds having Syk inhibitory activity” (Japan Tobacco, Inc., priority 2005, dated 2010).
Counter-ions that a name gives are not always drawn. Like-named read-outs stand apart in the source and are kept apart here.

What was measured:
[1] = target: GST-Syk Full Protein (human) (Homo sapiens, UniProt P43405); assay: Syk kinase inhibition test (HTRF method); assay type: biochemical
Outline: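 HTRF read-out: after EDTA termination and 1 h with XL665-streptavidin and Eu-anti-phosphotyrosine, the 665/620 nm ratio was measured. The reaction ran 30 min at 20–25 °C with final 6.4 nM human GST-Syk, 250 nM biotinylated peptide, 100 μM ATP, pH 7.0 HEPES buffer, 2% DMSO.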

[2] = test system: cultured human mast cells; assay: Degranulation inhibition test using cultured human mast cells (IgE cross-linking, β-Hexosaminidase release); assay type: cell-based; details: Mast cell, cultured human mast cells, read-out: human degranulation ave. IC50
Outline: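 Degranulation was triggered by anti-hIgE (10 μg/mL final, 30 min, 37 °C) after a 10-min compound pretreatment (DMSO 0.1%) of cord-blood CD34+-derived mast cells primed 5 days with IL-4 and IgE. β-Hexosaminidase in supernatant was measured with p-nitrophenyl-GlcNAc substrate (A405), expressed against water-lysed total; IC50 (M).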

[3] = HTRF, 100 μM ATP, 30 min room temperature, average, read-out: sykHTRF ave IC50
[4] = anti-hIgE stimulation, β-Hexosaminidase index, average
[5] = Tables 1-x, compounds A, read-out: sykHTRF ave IC50
[6] = Tables 2-x, thiophene compounds B, read-out: sykHTRK ave IC50
[7] = Tables 2-x, thiophene compounds B

Row | Compound | IC50 [1, 3] [nM] | IC50 [2, 4] [nM] | further results
1 | CNC(=O)Cc1ccnc(Nc2cccc(-c3cnc([C@@H]4CCC(=O)N4)s3)n2)c1 [Compound A-342] | > 1000 | > 1000 | 
2 | COC1CCN(c2ncc(-c3cccc(Nc4cc(C)ccn4)n3)s2)CC1 [Compound A-431, N-{6-[2-(4-methoxypiperidin-1-yl)thiazol-5-yl]pyridin-2-yl}-N-(4-methylpyridin-2-yl)amine] |  |  | IC50 [1, 5]: < 100 nM; IC50 ([2]; Tables 1-x, compounds A): 100 to 1000 nM
3 | Cc1ccnc(Nc2cccc(-c3cnc(N(C)C4CCN(C(=O)CO)CC4)s3)n2)c1 [Compound A-459, 2-hydroxy-1-[4-(N-methyl-N-{5-[6-(4-methylpyridin-2-ylamino)pyridin-2-yl]thiazol-2-yl}amino)piperidin-1-yl]ethanone] |  |  | IC50 [1, 5]: < 100 nM; IC50 ([2]; Tables 1-x, compounds A): 100 to 1000 nM
4 | CNCc1ccc(-c2cccc(Nc3cc(C)ccn3)n2)s1 [Compound B-25] |  |  | IC50 [1, 6]: 100 to 1000 nM; IC50 [2, 7]: > 1000 nM
5 | Cc1ccnc(Nc2cccc(-c3cnc(Cc4ccc(CO)cc4)s3)n2)c1 [Compound A-243, (4-{5-[6-(4-methylpyridin-2-ylamino)pyridin-2-yl]thiazol-2-ylmethyl}phenyl)methanol] | < 100 | 100 to 1000 | 
6 | Cc1ccnc(Nc2cccc(-c3cnc(CCCCC(=O)NS(C)(=O)=O)s3)n2)c1 [Compound A-171] | 100 to 1000 | > 1000 | 
7 | Cc1ccnc(Nc2cccc(-c3cnc(N(C)[C@H]4CC[C@@H](CC(=O)O)CC4)s3)n2)c1 [Compound A-611, [cis-4-(N-methyl-N-{5-[6-(4-methylpyridin-2-ylamino)pyridin-2-yl]thiazol-2-yl}amino)cyclohexyl]acetic acid] |  |  | IC50 [1, 5]: < 100 nM; IC50 ([2]; Tables 1-x, compounds A): 100 to 1000 nM
8 | Cc1ccnc(Nc2cccc(-c3cnc([C@H]4CC[C@H](C(=O)NC5(CO)CCCC5)CC4)s3)n2)c1 [Compound A-310] | 100 to 1000 | > 1000 | 
9 | Cc1ccnc(Nc2cccc(-c3cnc(COCC(=O)N4CCN(C)C(=O)C4)s3)n2)c1 [Compound A-388] |  |  | IC50 [1, 5]: > 1000 nM; IC50 ([2]; Tables 1-x, compounds A): > 1000 nM
10 | COC(=O)c1cc(Br)nc(Nc2cccc(-c3ccc(C(C)=O)s3)n2)c1 [Compound B-44] |  |  | IC50 [1, 6]: > 1000 nM; IC50 [2, 7]: > 1000 nM
11 | Cc1ccnc(Nc2cccc(-c3cnc(N(C)c4ccc(CC(=O)O)cc4)s3)n2)c1 [Compound A-617, [4-(N-methyl-N-{5-[6-(4-methylpyridin-2-ylamino)pyridin-2-yl]thiazol-2-yl}amino)phenyl]acetic acid dihydrochloride] |  |  | IC50 [1, 5]: < 100 nM; IC50 ([2]; Tables 1-x, compounds A): > 1000 nM
12 | CC(=O)c1ccnc(Nc2cccc(-c3cnc(N4CCC[C@H]4C(N)=O)s3)n2)c1 [Compound A-561, (S)-1-{5-[6-(4-acetylpyridin-2-ylamino)pyridin-2-yl]thiazol-2-yl}pyrrolidine-2-carboxamide] |  |  | IC50 [1, 5]: < 100 nM; IC50 ([2]; Tables 1-x, compounds A): 100 to 1000 nM
13 | Cc1ccnc(Nc2cccc(-c3cnc(C4CCC(c5nnn[nH]5)CC4)s3)n2)c1 (stereo not shown) [Compound A-326, N-(4-methylpyridin-2-yl)-N-(6-{2-[4-(1H-tetrazol-5-yl)cyclohexyl]thiazol-5-yl}pyridin-2-yl)amine] | < 100 | 100 to 1000 | 
14 | Cc1ccnc(Nc2cccc(-c3cnc(N(C)Cc4ccc(CC(=O)O)cc4)s3)n2)c1 [Compound A-587, {4-[(N-methyl-N-{5-[6-(4-methylpyridin-2-ylamino)pyridin-2-yl]thiazol-2-yl}amino)methyl]phenyl}acetic acid dihydrochloride] |  |  | IC50 [1, 5]: < 100 nM; IC50 ([2]; Tables 1-x, compounds A): 100 to 1000 nM
15 | COC(=O)c1sc(-c2cccc(Nc3cc(C)ccn3)n2)cc1C [Compound B-36] |  |  | IC50 [1, 6]: 100 to 1000 nM; IC50 [2, 7]: > 1000 nM
16 | Cc1ccnc(Nc2cccc(-c3cnc(CCc4ccc(CO)cc4)s3)n2)c1 [Compound A-159, [4-(2-{5-[6-(4-methylpyridin-2-ylamino)pyridin-2-yl]thiazol-2-yl}ethyl)phenyl]methanol] | < 100 | 100 to 1000 | 
17 | CC(=O)N[C@@H](C)c1ncc(-c2cccc(Nc3cc(CC(=O)O)ccn3)n2)s1 [Compound A-331] | > 1000 | > 1000 | 
18 | Cc1ccnc(Nc2cccc(-c3cnc([C@H]4CC[C@H](C(=O)N[C@H](CO)Cc5cnc[nH]5)CC4)s3)n2)c1 [Compound A-304, N—[(S)-2-hydroxy-1-(3H-imidazol-4-ylmethyl)ethyl]-trans-4-{5-[6-(4-methylpyridin-2-ylamino)pyridin-2-yl]thiazol-2-yl}cyclohexanecarboxamide] | < 100 | > 1000 | 
19 | Cc1ccnc(Nc2cccc(-c3cnc(N(CC(N)=O)[C@H]4CC[C@@H](C(=O)O)CC4)s3)n2)c1 [Compound A-598, cis-4-(N-carbamoylmethyl-N-{5-[6-(4-methylpyridin-2-ylamino)pyridin-2-yl]thiazol-2-yl}amino)cyclohexanecarboxylic acid] |  |  | IC50 [1, 5]: < 100 nM; IC50 ([2]; Tables 1-x, compounds A): > 1000 nM
20 | Cc1ccnc(Nc2cccc(-c3cnc(CN4C(=O)COCC4=O)s3)n2)c1 [Compound A-387] |  |  | IC50 [1, 5]: 100 to 1000 nM; IC50 ([2]; Tables 1-x, compounds A): 100 to 1000 nM

Second part, led by results:

Row | IC50 [1, 3] [nM] | IC50 [2, 4] [nM] | Compound | further results
21 | 100 to 1000 | > 1000 | Cc1ccnc(Nc2cccc(-c3cnc(CNC[C@H]4CC[C@H](CO)CC4)s3)n2)c1 [Compound A-208] | 
22 | 100 to 1000 | 100 to 1000 | Cc1ccnc(Nc2cccc(-c3cnc(C(=O)N4CCCC(O)C4)s3)n2)c1 (stereo not shown) [Compound A-61] | 
23 | 100 to 1000 | > 1000 | Cc1ccnc(Nc2cccc(-c3cnc([C@H](C)NC(=O)CC(=O)O)s3)n2)c1 [Compound A-123] | 
24 | 100 to 1000 | > 1000 | Cc1ccnc(Nc2cccc(-c3cnc(COCC(=O)N4C[C@@H](O)[C@@H](O)C4)s3)n2)c1 [Compound A-374] | 
25 | 100 to 1000 | > 1000 | Cc1ccnc(Nc2cccc(-c3cnc(CNc4ccc(CC(=O)N5CCC(O)CC5)cc4)s3)n2)c1 [Compound A-278] | 
26 | < 100 | 100 to 1000 | Cc1ccnc(Nc2cccc(-c3cnc([C@H]4CC[C@H](C(=O)N5CCC(N)C5)CC4)s3)n2)c1 (stereo partly drawn) [Compound A-311, (3-aminopyrrolidin-1-yl)-(trans-4-{5-[6-(4-methylpyridin-2-ylamino)pyridin-2-yl]thiazol-2-yl}cyclohexyl)methanone trihydrochloride] | 
27 | < 100 | 100 to 1000 | Cc1ccnc(Nc2cccc(-c3cnc(CN4CCNCC4)s3)n2)c1 [Compound A-194, N-(4-methylpyridin-2-yl)-N-{6-[2-(piperazin-1-ylmethyl)thiazol-5-yl]pyridin-2-yl}amine] | 
28 | < 100 | 100 to 1000 | Cc1ccnc(Nc2cccc(-c3cnc(CCC4CCN(S(C)(=O)=O)CC4)s3)n2)c1 [Compound A-260, N-(6-{2-[2-(1-methanesulfonylpiperidin-4-yl)ethyl]thiazol-5-yl}pyridin-2-yl)-N-(4-methylpyridin-2-yl)amine] | 
29 | 100 to 1000 | > 1000 | Cc1ccnc(Nc2cccc(-c3cnc(CNCCO)s3)n2)c1 [Compound A-216] | 
30 | 100 to 1000 | > 1000 | Cc1ccnc(Nc2cccc(-c3cnc(CC(=O)N4CCC(O)CC4)s3)n2)c1 [Compound A-230] | 
31 | 100 to 1000 | 100 to 1000 | Cc1ccnc(Nc2cccc(-c3cnc(C4CCCC(C(=O)N5CCC(O)CC5)C4)s3)n2)c1 (stereo not shown) [Compound A-272] | 
32 | 100 to 1000 | 100 to 1000 | Cc1ccnc(Nc2cccc(-c3cnc(C)s3)n2)c1 [Compound A-231] | 
